Results as given in publication PMC8168783, “An anion and small molecule inhibition study of the β-carbonic anhydrase from Staphylococcus aureus” (Journal of Enzyme Inhibition and Medicinal Chemistry, 2021).

Biological target: T1, SauBCA
T1 construct: recombinant, obtained in-house as described earlier
Test: stopped-flow CO2 hydration assay
Type: biochemical, Staphylococcus aureus
Settings: CO2 1.7-17 mM, 10 mM Hepes pH 7.4, 10 mM NaClO4, 15 min preincubation at room temperature

CCN(CC)C(=S)S [N,N-diethyldithiocarbamate]
Ki (inhibitor as sodium salt): 0.64 mM

O=S(O)O [bisulphite]
Ki (inhibitor as sodium salt): 0.9 mM

O=[As](O)(O)c1ccccc1 [phenylarsonic acid]
Ki (inhibitor as sodium salt): 0.007 mM

OB(O)c1ccccc1 [phenylboronic acid]
Ki (not as sodium salt): 0.008 mM

N#C[SeH] [selenocyanate]
Ki (inhibitor as sodium salt): 5.5 mM

[O]=[Sn]([OH])[OH] [stannate]
Ki (inhibitor as sodium salt): 0.32 mM
